Drawing on US20170326125A1, “MULTISUBSTITUTED AROMATIC COMPOUNDS AS INHIBITORS OF THROMBIN” (VERSEON CORPORATION, priority 2016, published 2017), this text covers IC50 for 60 molecules.

The structures appear in SMILES notation.

This experiment deals with T1, Human thrombin (Homo sapiens, UniProt P00734).
T1 construct: purchased Haematologic Technologies Inc
Put plainly: Inhibition of the protease activity of thrombin (chromogenic substrate S-2238). The class given is biochemical. As for the experimental part: Compounds described herein can be assayed, by a variety of methods known in the art and described herein, for inhibition of biological activity, e.g., protease activity, of a variety of proteins, e.g., thrombin.
The thrombin activity reported herein (e.g., Table A) was obtained as follows. Human thrombin was obtained from Haematologic Technologies Inc. The chromogenic
Thrombin was assayed in buffer containing 0.05 M Tris (pH 7.4), 0.015 M NaCl and 0.01% PEG-8000. The final concentration of enzyme used was 3 nM thrombin. […] All assays were performed in 96-well microtiter plates at room temperature (RT). […] Inhibitor IC50 values were determined by adding test compound as ten point, three-fold serial dilutions in buffer solution, as known in the art. The plate was read at 10 minutes after substrate addition. The IC50 was calculated by plotting the percent (%) inhibition against compound concentration and fitting the data to a constrained four parameter sigmoidal curve, as known in the art.

The mark [1] stands for this setting: Table C, 3 nM thrombin, 125 μM S-2238, 10 min pre-incubation, RT.
Setting [2] is: inhibition of the protease activity of thrombin, class symbols a/b/c.

Molecule `Nc1nc(-c2cccnc2)n[nH]1` [Cmpd 1, 3-(pyridin-3-yl)-1H-1,2,4-triazol-5-amine] had an IC50 under setting [1] above 1000 nM.

Under setting [1], `Nc1n[nH]c(-c2ccccn2)n1` [Cmpd 2, 3-(pyridin-2-yl)-1H-1,2,4-triazol-5-amine] returned an IC50 above 1000 nM.

As for `Nc1n[nH]c(-c2ccncc2)n1` [Cmpd 3, 3-(pyridin-4-yl)-1H-1,2,4-triazol-5-amine], the IC50 under setting [1] was above 1000 nM.

For the molecule `Fc1ccc(CNc2nc(-c3cccnc3)n[nH]2)cc1` [Cmpd 4], the IC50 under setting [2] is above 1000 nM.

In turn, `CCC(=O)n1nc(-c2cccnc2)nc1NCc1cccc(F)c1` [Cmpd 8, 1-(5-[(3-fluorophenyl)methyl]amino-3-(pyridin-3-yl)-1H-1,2,4-triazol-1-yl)propan-1-one] showed an IC50 under setting [1] of 100 to 1000 nM.

For the molecule `CCC(=O)n1nc(-c2cccnc2)nc1NCc1ccccc1F` [Cmpd 9], the IC50 under setting [2] is 100 to 1000 nM.

`CCC(=O)n1nc(-c2cccnc2)nc1NCc1ccc(C#N)cc1` [Cmpd 10] displayed an IC50 under setting [2] above 1000 nM.

Molecule `O=C(c1ccccc1)n1nc(-c2ccncc2)nc1NCc1ccc(F)cc1` [Cmpd 14] displayed an IC50 under setting [2] below 100 nM.

Molecule `O=C(c1ccsc1)n1nc(-c2ccncc2)nc1NCc1ccc(F)cc1` [Cmpd 15] displayed an IC50 under setting [2] below 100 nM.

Molecule `COc1ccc(CNc2nc(-c3ccncc3)nn2C(=O)C(C)(C)C)cc1` [Cmpd 16] had an IC50 under setting [2] below 100 nM.

Under setting [2], `O=C(N1CCOCC1)n1nc(-c2cccnc2)nc1NCc1ccc(F)cc1` [Cmpd 17] had an IC50 above 1000 nM.

`O=C(Nc1ccccc1F)n1nc(-c2cccnc2)nc1NCc1ccc(F)cc1` [Cmpd 18] displayed an IC50 under setting [2] above 1000 nM.

`CNC(=O)n1nc(-c2cccnc2)nc1NCc1ccc(F)cc1` [Cmpd 19]: the IC50 under setting [2] was above 1000 nM.

As for `COC(=O)n1nc(-c2cccnc2)nc1NCc1ccc(F)cc1` [Cmpd 20], the IC50 under setting [2] lay in the range of 100 to 1000 nM.

Consider `O=C(Cn1nc(-c2cccnc2)nc1NCc1ccc(F)cc1)c1ccccc1` [Cmpd 21], for which the IC50 under setting [2] is above 1000 nM.

Turning to `CCC(=O)n1nc(-c2cccnc2)nc1NCCc1ccccc1` [Cmpd 22], the IC50 under setting [2] was above 1000 nM.

Molecule `CCC(=O)n1nc(-c2cccnc2)nc1NCCN1CCOCC1` [Cmpd 23] displayed an IC50 under setting [2] above 1000 nM.

As to `CCC(=O)n1nc(-c2cccnc2)nc1N(C)C` [Cmpd 24], the IC50 under setting [2] is above 1000 nM.

With `Nc1nc(-c2ccco2)n[nH]1` [Cmpd 25, 3-(furan-2-yl)-1H-1,2,4-triazol-5-amine], the IC50 under setting [1] was above 1000 nM.

Turning to `COc1ccccc1C(=O)n1nc(-c2ccco2)nc1NCc1ccc(F)cc1` [Cmpd 26], under setting [2], the IC50 was below 100 nM.

`COc1ccccc1C(=O)n1nc(-c2cccs2)nc1NCc1ccc(F)cc1` [Cmpd 27] registered an IC50 under setting [2] of 100 to 1000 nM.

Take `COc1ccccc1C(=O)n1nc(-c2ccncn2)nc1NCc1ccccc1` [Cmpd 33]: the IC50 under setting [2] was below 100 nM.

`COc1ccccc1C(=O)n1nc(-c2cncnc2)nc1NCc1ccccc1` [Cmpd 34]: the IC50 under setting [2] was below 100 nM.

As to `COc1ccccc1C(=O)n1nc(-c2ncccn2)nc1NCc1ccccc1` [Cmpd 35], the IC50 under setting [2] was below 100 nM.

In the case of `Cc1c(-c2ccccc2)nn(C(=O)C(C)(C)C)c1NCc1ccc(F)cc1` [Cmpd 38], under setting [2], the IC50 was above 1000 nM.

Regarding `O=C(c1ccccc1Cl)n1nc(-c2ccccn2)cc1NCc1ccc(F)cc1` [Cmpd 41], the IC50 under setting [2] was 100 to 1000 nM.

For the molecule `Nc1cc(-c2ccccn2)nn1-c1ccccc1Cl` [Cmpd 42], the concentration for half-maximal inhibition (IC50) under setting [2] is above 1000 nM.

Molecule `O=C(Nc1cc(-c2ccccn2)nn1-c1ccccc1Cl)c1ccc(F)cc1` [Cmpd 43] registered an IC50 under setting [2] above 1000 nM.

Molecule `Fc1ccc(CN(Cc2ccc(F)cc2)c2cc(-c3ccccn3)nn2-c2ccccc2Cl)cc1` [Cmpd 44] showed an IC50 under setting [2] above 1000 nM.

Molecule `Fc1ccc(CNc2cc(-c3ccccn3)nn2-c2ccccc2Cl)cc1` [Cmpd 45] gave an IC50 under setting [2] above 1000 nM.

Under setting [2], `CCOC(=O)c1cn(-c2ccccn2)nc1NCc1ccc(F)cc1` [Cmpd 46] gave a half-maximal inhibitory concentration (IC50) above 1000 nM.

`O=C(O)c1cn(-c2ccccn2)nc1NCc1ccc(F)cc1` [Cmpd 47]: the IC50 under setting [2] is above 1000 nM.

The molecule `CON(C)C(=O)c1cn(-c2ccccn2)nc1NCc1ccc(F)cc1` [Cmpd 48] yielded an IC50 under setting [2] above 1000 nM.

For `CN(C)C(=O)c1cn(-c2ccccn2)nc1NCc1ccc(F)cc1` [Cmpd 49], the IC50 under setting [2] is above 1000 nM.

As to `CCC(=O)c1cn(-c2ccccn2)nc1NCc1ccc(F)cc1` [Cmpd 50], the IC50 under setting [2] was above 1000 nM.

Molecule `CCOC(=O)c1cc(-c2ccccn2)nn1CCc1ccc(F)cc1` [Cmpd 51] yielded an IC50 under setting [2] above 1000 nM.

As to `O=C(O)c1cc(-c2ccccn2)nn1CCc1ccc(F)cc1` [Cmpd 52], under setting [2], the IC50 is above 1000 nM.

Regarding `CON(C)C(=O)c1cc(-c2ccccn2)nn1CCc1ccc(F)cc1` [Cmpd 53], the IC50 under setting [2] is above 1000 nM.

Turning to `O=C(c1cc(-c2ccccn2)nn1CCc1ccc(F)cc1)N1CCCCC1` [Cmpd 54], the IC50 under setting [2] was above 1000 nM.

Under setting [2], `CCC(O)c1cc(-c2ccccn2)nn1CCc1ccc(F)cc1` (stereo not drawn) [Cmpd 55] showed an IC50 above 1000 nM.

`CCOC(=O)c1cc(-c2ccccn2)n(CCc2ccc(F)cc2)n1` [Cmpd 57] displayed an IC50 under setting [2] above 1000 nM.

Under setting [2], `O=C(O)c1cc(-c2ccccn2)n(CCc2ccc(F)cc2)n1` [Cmpd 58] displayed an IC50 above 1000 nM.

As for `O=C(c1cc(-c2ccccn2)n(CCc2ccc(F)cc2)n1)N1CCCCC1` [Cmpd 59], under setting [2], the IC50 is above 1000 nM.

On to `CC(=O)c1cn(-c2ccccn2)nc1NCc1ccc(F)cc1` [Cmpd 60, 1-(3-[(4-fluorophenyl)methyl]amino-1-(pyridin-2-yl)-1H-pyrazol-4-yl)ethan-1-one], for which the IC50 under setting [2] is above 1000 nM.

Turning to `CC(=O)c1cn(-c2ccccc2)nc1NCc1ccc(F)cc1` [Cmpd 61, 1-(3-[(4-fluorophenyl)methyl]amino-1-phenyl-1H-pyrazol-4-yl)ethan-1-one], under setting [2], the IC50 is above 1000 nM.

In the case of `CCC(=O)c1cn(-c2ccccc2)nc1NCc1ccc(F)cc1` [Cmpd 62, 1-(3-[(4-fluorophenyl)methyl]amino-1-phenyl-1H-pyrazol-4-yl)propan-1-one], under setting [2], the IC50 was above 1000 nM.

Under setting [2], `CCC(=O)n1nc(-c2ccco2)nc1NCc1ccc(F)cc1` [Cmpd 63, 1-(5-[(4-fluorophenyl)methyl]amino-3-(furan-2-yl)-1H-1,2,4-triazol-1-yl)propan-1-one] came in with an IC50 below 100 nM.

Take `O=C(Cc1ccccc1)n1nc(-c2ccccn2)nc1NCc1ccc(F)cc1` [Cmpd 66, 1-(5-[(4-fluorophenyl)methyl]amino-3-(pyridin-2-yl)-1H-1,2,4-triazol-1-yl)-2-phenylethan-1-one]: the IC50 under setting [2] was below 100 nM.

In the case of `CC(C)CC(=O)n1nc(-c2ccccn2)nc1NCc1ccc(F)cc1` [Cmpd 67, 1-(5-[(4-fluorophenyl)methyl]amino-3-(pyridin-2-yl)-1H-1,2,4-triazol-1-yl)-3-methylbutan-1-one], the IC50 under setting [2] was below 100 nM.

`O=C(CCc1ccccc1)n1nc(-c2ccccn2)nc1NCc1ccc(F)cc1` [Cmpd 68, 1-(5-[(4-fluorophenyl)methyl]amino-3-(pyridin-2-yl)-1H-1,2,4-triazol-1-yl)-3-phenylpropan-1-one] came in with an IC50 under setting [2] below 100 nM.

Take `CCCC(=O)n1nc(-c2ccccn2)nc1NCc1ccc(F)cc1` [Cmpd 69, 1-(5-[(4-fluorophenyl)methyl]amino-3-(pyridin-2-yl)-1H-1,2,4-triazol-1-yl)butan-1-one]: the IC50 under setting [2] was below 100 nM.

Molecule `CC(C)(C)C(=O)n1nc(-c2cccnc2)nc1NCc1ccc(F)cc1` [Cmpd 71, 1-(5-[(4-fluorophenyl)methyl]amino-3-(pyridin-3-yl)-1H-1,2,4-triazol-1-yl)-2,2-dimethylpropan-1-one] came in with an IC50 under setting [2] below 100 nM.

In turn, `CC(C)(C)C(=O)Cn1nc(-c2cccnc2)nc1NCc1ccc(F)cc1` [Cmpd 72, 1-(5-[(4-fluorophenyl)methyl]amino-3-(pyridin-3-yl)-1H-1,2,4-triazol-1-yl)-3,3-dimethylbutan-2-one] came in with an IC50 under setting [2] above 1000 nM.

Under setting [2], `CC(=O)Cn1nc(-c2cccnc2)nc1NCc1ccc(F)cc1` [Cmpd 73, 1-(5-[(4-fluorophenyl)methyl]amino-3-(pyridin-3-yl)-1H-1,2,4-triazol-1-yl)propan-2-one] came in with an IC50 above 1000 nM.

As for `CCC(=O)n1nc(-c2cccnc2)cc1NCc1ccc(F)cc1` [Cmpd 74, 1-(5-[(4-fluorophenyl)methyl]amino-3-(pyridin-3-yl)-1H-pyrazol-1-yl)propan-1-one], under setting [2], the IC50 is above 1000 nM.

`CC(C)(C)C(=O)n1nc(-c2ccncc2)nc1NCc1ccc(F)cc1` [Cmpd 75, 1-(5-[(4-fluorophenyl)methyl]amino-3-(pyridin-4-yl)-1H-1,2,4-triazol-1-yl)-2,2-dimethylpropan-1-one] displayed an IC50 under setting [2] below 100 nM.

Molecule `CC(C)C(=O)n1nc(-c2ccncc2)nc1NCc1ccc(F)cc1` [Cmpd 76, 1-(5-[(4-fluorophenyl)methyl]amino-3-(pyridin-4-yl)-1H-1,2,4-triazol-1-yl)-2-methylpropan-1-one] showed an IC50 under setting [2] below 100 nM.

The molecule `O=C(Cc1ccccc1)n1nc(-c2ccncc2)nc1NCc1ccc(F)cc1` [Cmpd 77, 1-(5-[(4-fluorophenyl)methyl]amino-3-(pyridin-4-yl)-1H-1,2,4-triazol-1-yl)-2-phenylethan-1-one] gave an IC50 under setting [2] below 100 nM.

In the case of `CC(C)CC(=O)n1nc(-c2ccncc2)nc1NCc1ccc(F)cc1` [Cmpd 78, 1-(5-[(4-fluorophenyl)methyl]amino-3-(pyridin-4-yl)-1H-1,2,4-triazol-1-yl)-3-methylbutan-1-one], under setting [2], the IC50 is below 100 nM.

Molecule `O=C(CCc1ccccc1)n1nc(-c2ccncc2)nc1NCc1ccc(F)cc1` [Cmpd 79, 1-(5-[(4-fluorophenyl)methyl]amino-3-(pyridin-4-yl)-1H-1,2,4-triazol-1-yl)-3-phenylpropan-1-one] returned an IC50 under setting [2] below 100 nM.
